Measured values published in patent US9867794B2, “Regulation of osteopontin” (Pathologica LLC, priority 2007, dated 2018).
Where “and” joins values, the source holds several entries; their conditions need not be identical. Equal values may be shown once.

Legend:
FCGR1a = test: Quantitative RT-PCR, unsorted mononuclear cells, FCGR1A; format: cell-based, human
Method: (§1) To evaluate the effect of MGBG on gene expression, blood samples were obtained from patients (N=18, 10 HIV-infected and 8 Healthy Controls). Mononuclear cells were isolated via Percoll gradient centrifugation. The cells were split into two tubes, one treated with 10 μM of MGBG and the other non-treated. The cells were then cultured overnight in RPMI media plus 10% fetal bovine serum at 37 C under non-adherent conditions, collected, lysed using Trizol solution, and total RNA prepared according to manufacturer's instructions (Invitrogen, Carlsbad, Calif.).
(§2) Approximately 200 ng of total RNA prepared from each sample was converted to cDNA using the First Strand cDNA Synthesis Kit for RT-PCR [AMV] kit (Roche Applied Diagnostics, Indianapolis, Ind.) according to manufacturer's instructions. Around 5 ng of cDNA sample was then used for PCR performed on a LightCycler (Roche Applied Diagnostics, Indianapolis, Ind.) using the LightCycler FastStart DNA Master SYBR Green I kit. PCR conditions are as follows: 1 cycle of denaturation at 95° C. for 10 minutes, followed by 45 cycles of 95° C. for 10 seconds, 68° C. for 10 seconds, and 72° C. for 16 seconds.
(§3) The sequences of gene-specific primers evaluated are listed below. All samples were also amplified with the human β-actin LightCycler-Primer set (Roche Diagnostics).

OPN protein = test: OPN production inhibition assay in un-stimulated PBMC cultures, OPN protein; format: cell-based; conditions: 10 μM
Method: (§4) 10 μM of each drug was added to un-stimulated PBMC cultures at time=0 and cells were harvested 1,3, and 6 days later for quantitative OPN RNA and protein production analysis.

IL1RN = test: Quantitative RT-PCR, unsorted mononuclear cells, IL1RN; format: cell-based, human
Method: as §1, §2, §3

IL6 = test: Quantitative RT-PCR, unsorted mononuclear cells, IL6; format: cell-based, human
Method: as §1, §2, §3

osteopontin = test: QRT-PCR in CD14/CD16-separated cell fractions, osteopontin RNA; format: cell-based, human; conditions: for osteopontin RNA, median change relative to no MGBG: 10 μM MGBG
Method: (§5) The changes induced by MGBG in different blood cell types were determined for osteopontin and adenosine deaminase and 7 other genes. For this experiment, blood samples were obtained from 6 healthy controls (3 men/3 women from 20 to 55 years of age) and mononuclear cells were isolated via Percoll gradient centrifugation. The cells were then incubated for 3 hours in RPMI media plus 10% fetal bovine serum at 37 C. At that point MGBG was added to 10 μM to half of each sample and then the cells were incubated at 37 C for 20 more hours. The cells were then bound to magnetic beads coated with antibodies to human CD16. Bound cells (CD16 expressing) were separated from unbound cells using an AutoMACs according to manufacturer's instructions (Miltenyi, Auburn Calif.). Then CD16+ cells are released from the magnetic beads and both the CD16+ and CD16− cells are combined with magnetic beads coated with antibodies to human CD14. Antibody bound and unbound cells were then separated using the AutoMACs machine. […] Cells that neither express CD16 nor CD14 (the −/− Cells). This is mostly T lymphocytes; 2. Cells that only express CD16. This includes contaminating granulocytes not removed by Percoll centrifugation and CD16+ monocytes with very low CD14 expression; 3. Cells that express both CD16 and CD14. This includes monocytes that are expressing CD16+ and macrophages (which express high levels of both); and 4. Cells that only express CD14. This would include most normal human monocytes. After separation, cells of each fraction are washed with PBS and the number of viable cells determined by trypan blue exclusion. RNA is then prepared from each cell group using TRIZOL, according to manufacturer's instructions.

OPN RNA = test: OPN production inhibition assay in un-stimulated PBMC cultures, OPN RNA; format: cell-based; conditions: 10 μM, harvested 1, 3 and 6 days
Method: as §4

GPR43 = test: QRT-PCR in CD14/CD16-separated cell fractions, GPR43 RNA; format: cell-based, human; conditions: CD14/CD16++ macrophages, 10 μM MGBG, p=0.03
Method: as §5, with “Cells that express both CD16 and CD14. This includes monocytes that are expressing CD16+ and macrophages (which express high levels of both); and 4. Cells that only express CD14. This would include most normal human monocytes.” left out, “RNA is then prepared from each cell group using TRIZOL, according to manufacturer's instructions.” left out

ADA = test: Quantitative RT-PCR, unsorted mononuclear cells, ADA; format: cell-based, human
Method: as §1, §2, §3

[1] = 10 μM MGBG overnight, individual samples
[2] = 10 μM MGBG overnight, untreated vs treated, negative = fold reduction, individual samples
[3] = 10 μM MGBG, all unsorted samples

SMILES: CC(/C=N/NC(=N)N)=N\NC(=N)N [MGBG, 1,1′ [methylethanediylidene]dinitrilodiguanidine]
- Fold change FCGR1A by QRT-PCR (FCGR1a; [1]): −1.61 fold and −1.84 fold and −1.01 fold and −1.72 fold and −3.73 fold and 1.72 fold and 5.94 fold and 2.39 fold and −1.97 fold and 19.03 fold and 1.16 fold and −0.41 fold and −0.43 fold and −10.78 fold and −17.15 fold and −2.22 fold and −3.86 fold and 1.05 fold
- FCGR1A AVERAGE (FCGR1a; 10 μM MGBG, all samples): 2.25 fold
- FCGR1A MAX (FCGR1a; 10 μM MGBG, all samples): 19.03 fold
- FCGR1A MIN (FCGR1a; 10 μM MGBG, all samples): −17.15 fold
- OPN protein production (OPN protein): Complete inhibition
- Fold change IL1RN by QRT-PCR (IL1RN; [2]): −10.41 fold and −3.73 fold and 1.12 fold and −1.73 fold and −1.36 fold and −14.22 fold and −1.87 fold and −1.78 fold and 8.63 fold and −2.27 fold and 1.59 fold and −8.17 fold and −19.56 fold and −1.77 fold and −4.92 fold and −2.31 fold and −8.28 fold and −17.75 fold
- Fold change IL1RN, AVERAGE (IL1RN; [3]): −4.9 fold
- Fold change IL1RN, MAX (IL1RN; [3]): 8.6 fold
- Fold change IL1RN, MIN (IL1RN; [3]): −19.6 fold
- IL1RN % >2 fold Changed (IL1RN; share of samples, 10 μM MGBG): 55%
- samples with IL1RN down-regulated (IL1RN; unsorted samples): 15 out of 18
- Fold change IL6 by QRT-PCR (IL6; [1]): −5.31 fold and 3.71 fold and 1.04 fold and 1.01 fold and −2.93 fold and −4.17 fold and 2.20 fold and 2.83 fold and −2.71 fold and −4.06 fold and 1.74 fold (2×) and 1.30 fold and 1.46 fold and −6.15 fold and −1.09 fold and −5.46 fold and 14.72 fold
- IL6 AVERAGE (IL6; 10 μM MGBG, all samples): 1.91 fold
- IL6 MAX (IL6; 10 μM MGBG, all samples): 14.72 fold
- IL6 MIN (IL6; 10 μM MGBG, all samples): −6.15 fold
- osteopontin RNA, median change relative to no MGBG (osteopontin; CD14+ monocyte fraction): 0.21
- osteopontin RNA median reduction (osteopontin; CD14+ monocyte fraction, 10 μM MGBG 20 h, healthy controls, p=0.03): 4.8 fold
- osteopontin RNA, median change relative to no MGBG (osteopontin; CD14/16++ cells, not significant): 0.61
- osteopontin RNA, median change relative to no MGBG (osteopontin; CD16+ cells, not significant): 1.12
- osteopontin RNA, median change relative to no MGBG (osteopontin; double negative cells, not significant): 0.70
- OPN RNA expression (OPN RNA): inhibited in a time dependant manner
- GPR43 expression median signal relative to no MGBG (GPR43): 2.4
- Fold change ADA by QRT-PCR (ADA; [2]): 16.80 fold and 4.69 fold and 18.77 fold and 2.33 fold and 13.00 fold and 3.34 fold and 5.90 fold and 10.06 fold and 7.52 fold and 4.23 fold and 7.21 fold and 1.38 fold and −0.73 fold and 6.68 fold and 3.01 fold and 3.76 fold and 1.16 fold and 7.16 fold
- Fold change ADA, AVERAGE (ADA; [3]): 6.5 fold
- Fold change ADA, MAX (ADA; [3]): 18.8 fold
- Fold change ADA, MIN (ADA; [3]): −0.7 fold
- ADA % >2 fold Changed (ADA; share of samples, 10 μM MGBG): 83%
- ADA regulation by MGBG (ADA; upregulated in all but one sample): strongly induced
